Source: patent US9695155B2, “Herbicidal substituted pyrimidinyloxy benzene compounds” (E. I. DU PONT DE NEMOURS AND COMPANY, priority 2013, dated 2017)

Tests used:
barnyardgrass [1] = test: Test A preemergence; type: in vivo, Echinochloa crus-galli
Method in brief: (§1)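 Visual injury scored 0–100 (100 = complete control) against untreated controls about 10 days after treatment in a greenhouse. Test chemicals, formulated with surfactant in non-phytotoxic solvent, were sprayed on soil preemergence or on 2-10 cm, one- to two-leaf plants postemergence.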

corn = test: Test A preemergence; type: in vivo, Zea mays
Method in brief: as §1

barnyardgrass [2] = test: Test A postemergence; type: in vivo, Echinochloa crus-galli
Method in brief: as §1

wheat = test: Test A postemergence; type: in vivo, Triticum aestivum
Method in brief: as §1

blackgrass = test: Test C postemergence; type: in vivo, Alopecurus myosuroides
Method in brief: (§2)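 Visual ratings on a 0–100 scale (100 = complete control) were made versus untreated controls after 13–15 greenhouse days. Chemicals in a surfactant-containing non-phytotoxic solvent were applied either preemergence to seeds in loam–sand soil or postemergence to 1- to 4-leaf plants 2–18 cm tall.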

galium = test: Test C postemergence; type: in vivo, Galium aparine
Method in brief: as §2

giant foxtail = test: Test C postemergence; type: in vivo, Setaria faberii
Method in brief: as §2

lambsquarters = test: Test C postemergence; type: in vivo, Chenopodium album
Method in brief: as §2

ragweed = test: Test C postemergence; type: in vivo, Ambrosia elatior
Method in brief: as §2

soybean = test: Test C postemergence; type: in vivo, Glycine max
Method in brief: as §2

velvetleaf = test: Test C postemergence; type: in vivo, Abutilon theophrasti
Method in brief: as §2

[3] = 125 g ai/ha, 0 to 100 scale where 0 is no effect and 100 is complete control
[4] = 500 g ai/ha, 0 to 100 scale where 0 is no effect and 100 is complete control
[5] = 16 g ai/ha, postemergence, 0 is no effect, 100 is complete control
[6] = 31 g ai/ha, postemergence, visual rating, scale 0 to 100 (0 no effect, 100 complete control), 13 to 15 days
[7] = 125 g ai/ha, postemergence, visual rating, scale 0 to 100 (0 no effect, 100 complete control)
[8] = Postemergence, 62 g ai/ha, scale 0 to 100 (0 no effect, 100 complete control)

SMILES: Clc1cnn(-c2ccccc2Oc2ncc(Br)cn2)c1 [Compound 5, 5-bromo-2-[2-(4-chloro-1H-pyrazol-1-yl)phenoxy]pyrimidine]
- pest or weed control at 125 g/ha (barnyardgrass [1]; Echinochloa crus-galli, pre-emergence, 240 h, 125 g ai/ha, 0 to 100 scale where 0 is no effect and 100 is complete control, read-out: Barnyardgrass plant response rating): 10%
- pest or weed control at 500 g/ha (barnyardgrass [1]; Echinochloa crus-galli, pre-emergence, 240 h, 500 g ai/ha, 0 to 100 scale, 0 no effect, 100 complete control, approx. 10 days, read-out: Barnyardgrass plant response rating): 80%
- plant injury at 125 g/ha (corn; Zea mays, pre-emergence, 240 h, 125 g ai/ha, 0 to 100 scale where 0 is no effect and 100 is complete control, read-out: Corn plant response rating): 0%
- plant injury at 500 g/ha (corn; Zea mays, pre-emergence, 240 h, 500 g ai/ha, 0 to 100 scale, 0 no effect, 100 complete control, approx. 10 days, read-out: Corn plant response rating): 0%
- pest or weed control at 125 g/ha (barnyardgrass [2]; Echinochloa crus-galli, post-emergence, 240 h, 125 g ai/ha, 0 to 100 scale where 0 is no effect and 100 is complete control, read-out: Plant response rating, Barnyardgrass): 10%
- pest or weed control at 500 g/ha (barnyardgrass [2]; Echinochloa crus-galli, post-emergence, 240 h, 500 g ai/ha, 0 to 100 scale, 0 no effect, 100 complete control, read-out: Plant response rating Barnyardgrass): 60%
- plant injury at 125 g/ha (wheat; Triticum aestivum, post-emergence, 240 h, 125 g ai/ha, 0 to 100 scale where 0 is no effect and 100 is complete control, read-out: Plant response rating, Wheat): 0%
- plant injury at 500 g/ha (wheat; Triticum aestivum, post-emergence, 240 h, 500 g ai/ha, 0 to 100 scale, 0 no effect, 100 complete control, read-out: Plant response rating Wheat): 40%
- pest or weed control at 125 g/ha (blackgrass; Alopecurus myosuroides, post-emergence, 125 g ai/ha, postemergence, read-out: Plant response rating (0 to 100), Blackgrass): 20%
- pest or weed control at 250 g/ha (blackgrass; Alopecurus myosuroides, post-emergence, 250 g ai/ha, postemergence, read-out: Plant response rating (0 to 100), Blackgrass): 45%
- pest or weed control at 31 g/ha (blackgrass; Alopecurus myosuroides, post-emergence, Postemergence, 31 g ai/ha, scale 0 to 100 (0 no effect, 100 complete control), 13 to 15 days, read-out: Plant response rating, Blackgrass): 0%
- pest or weed control at 62 g/ha (blackgrass; Alopecurus myosuroides, post-emergence, Postemergence, 62 g ai/ha, scale 0 to 100 (0 no effect, 100 complete control), read-out: Plant response rating, Blackgrass): 5%
- pest or weed control at 125 g/ha (galium; Galium, post-emergence, 125 g ai/ha, postemergence, read-out: Plant response rating (0 to 100), Galium): 80%
- pest or weed control at 250 g/ha (galium; Galium, post-emergence, 250 g ai/ha, postemergence, read-out: Plant response rating (0 to 100), Galium): 95%
- pest or weed control at 31 g/ha (galium; Galium, post-emergence, Postemergence, 31 g ai/ha, scale 0 to 100 (0 no effect, 100 complete control), 13 to 15 days, read-out: Plant response rating, Galium): 55%
- pest or weed control at 62 g/ha (galium; Galium, post-emergence, Postemergence, 62 g ai/ha, scale 0 to 100 (0 no effect, 100 complete control), read-out: Plant response rating, Galium): 70%
- pest or weed control at 125 g/ha (giant foxtail; Setaria faberi, post-emergence, 125 g ai/ha, postemergence, read-out: Plant response rating (0 to 100), Foxtail, Giant): 5%
- pest or weed control at 250 g/ha (giant foxtail; Setaria faberi, post-emergence, 250 g ai/ha, postemergence, read-out: Plant response rating (0 to 100), Foxtail, Giant): 10%
- pest or weed control at 31 g/ha (giant foxtail; Setaria faberi, post-emergence, Postemergence, 31 g ai/ha, scale 0 to 100 (0 no effect, 100 complete control), 13 to 15 days, read-out: Plant response rating, Foxtail, Giant): 5%
- pest or weed control at 62 g/ha (giant foxtail; Setaria faberi, post-emergence, Postemergence, 62 g ai/ha, scale 0 to 100 (0 no effect, 100 complete control), read-out: Plant response rating, Foxtail, Giant): 5%
- pest or weed control at 125 g/ha (lambsquarters; Chenopodium album, post-emergence, 125 g ai/ha, postemergence, read-out: Plant response rating (0 to 100), Lambsquarters): 98%
- pest or weed control at 250 g/ha (lambsquarters; Chenopodium album, post-emergence, 250 g ai/ha, postemergence, read-out: Plant response rating (0 to 100), Lambsquarters): 98%
- pest or weed control at 31 g/ha (lambsquarters; Chenopodium album, post-emergence, Postemergence, 31 g ai/ha, scale 0 to 100 (0 no effect, 100 complete control), 13 to 15 days, read-out: Plant response rating, Lambsquarters): 80%
- pest or weed control at 62 g/ha (lambsquarters; Chenopodium album, post-emergence, Postemergence, 62 g ai/ha, scale 0 to 100 (0 no effect, 100 complete control), read-out: Plant response rating, Lambsquarters): 95%
- pest or weed control at 125 g/ha (ragweed; Ambrosia artemisiifolia, post-emergence, 125 g ai/ha, postemergence, read-out: Plant response rating (0 to 100), Ragweed): 55%
- pest or weed control at 250 g/ha (ragweed; Ambrosia artemisiifolia, post-emergence, 250 g ai/ha, postemergence, read-out: Plant response rating (0 to 100), Ragweed): 85%
- pest or weed control at 31 g/ha (ragweed; Ambrosia artemisiifolia, post-emergence, Postemergence, 31 g ai/ha, scale 0 to 100 (0 no effect, 100 complete control), 13 to 15 days, read-out: Plant response rating, Ragweed): 15%
- pest or weed control at 62 g/ha (ragweed; Ambrosia artemisiifolia, post-emergence, Postemergence, 62 g ai/ha, scale 0 to 100 (0 no effect, 100 complete control), read-out: Plant response rating, Ragweed): 45%
- Soybean plant response rating (crop injury, 0-100 scale) at 125 g/ha (soybean; Glycine max, post-emergence, 125 g ai/ha, postemergence, read-out: Plant response rating (0 to 100), Soybean): 95%
- Soybean plant response rating (crop injury, 0-100 scale) at 250 g/ha (soybean; Glycine max, post-emergence, 250 g ai/ha, postemergence): 95%
- Soybean plant response rating (crop injury, 0-100 scale) at 31 g/ha (soybean; Glycine max, post-emergence, Postemergence, 31 g ai/ha, scale 0 to 100 (0 no effect, 100 complete control), 13 to 15 days): 55%
- Soybean plant response rating (crop injury, 0-100 scale) at 62 g/ha (soybean; Glycine max, post-emergence, Postemergence, 62 g ai/ha, scale 0 to 100 (0 no effect, 100 complete control)): 90%
- pest or weed control at 125 g/ha (velvetleaf; Abutilon theophrasti, post-emergence, 125 g ai/ha, postemergence, read-out: Plant response rating (0 to 100), Velvetleaf): 80%
- pest or weed control at 250 g/ha (velvetleaf; Abutilon theophrasti, post-emergence, 250 g ai/ha, postemergence, read-out: Plant response rating (0 to 100), Velvetleaf): 98%
- pest or weed control at 31 g/ha (velvetleaf; Abutilon theophrasti, post-emergence, Postemergence, 31 g ai/ha, scale 0 to 100 (0 no effect, 100 complete control), 13 to 15 days, read-out: Plant response rating, Velvetleaf): 45%
- pest or weed control at 62 g/ha (velvetleaf; Abutilon theophrasti, post-emergence, Postemergence, 62 g ai/ha, scale 0 to 100 (0 no effect, 100 complete control), read-out: Plant response rating, Velvetleaf): 55%

SMILES: Fc1cccc(Oc2ncc(Cl)cn2)c1-n1cc(Cl)cn1 [Compound 177]
- Plant response rating, Barnyardgrass (barnyardgrass [1]; [3]): 70
- Barnyardgrass plant response rating (barnyardgrass [1]; [4]): 100
- Plant response rating, Corn (corn; [3]): 0
- Corn plant response rating (corn; [4]): 50
- Barnyardgrass plant response rating (barnyardgrass [2]; [3]): 40
- Plant response rating, Barnyardgrass (barnyardgrass [2]; [4]): 100
- Wheat plant response rating (wheat; [3]): 20
- Plant response rating, Wheat (wheat; [4]): 90
- Plant response rating (0 to 100), Blackgrass (blackgrass; [5]): 0
- Blackgrass plant response rating (blackgrass; [6]): 5
- Plant response rating, Blackgrass (blackgrass; [7]): 35
- Plant response rating, Blackgrass (blackgrass; [8]): 5
- Plant response rating (0 to 100), Galium (galium; [5]): 60
- Galium plant response rating (galium; [6]): 50
- Plant response rating, Galium (galium; [7]): 98
- Plant response rating, Galium (galium; [8]): 85
- Plant response rating (0 to 100), Foxtail, Giant (giant foxtail; [5]): 5
- Foxtail, Giant plant response rating (giant foxtail; [6]): 10
- Plant response rating, Foxtail, Giant (giant foxtail; [7]): 20
- Plant response rating, Foxtail, Giant (giant foxtail; [8]): 10
- Plant response rating (0 to 100), Lambsquarters (lambsquarters; [5]): 60
- Lambsquarters plant response rating (lambsquarters; [6]): 65
- Plant response rating, Lambsquarters (lambsquarters; [7]): 90
- Plant response rating, Lambsquarters (lambsquarters; [8]): 75
- Plant response rating (0 to 100), Ragweed (ragweed; [5]): 10
- Ragweed plant response rating (ragweed; [6]): 15
- Plant response rating, Ragweed (ragweed; [7]): 60
- Plant response rating, Ragweed (ragweed; [8]): 55
- Plant response rating (0 to 100), Soybean (soybean; [5]): 45
- Soybean plant response rating (soybean; [6]): 65
- Plant response rating, Soybean (soybean; [7]): 95
- Plant response rating, Soybean (soybean; [8]): 85
- Plant response rating (0 to 100), Velvetleaf (velvetleaf; [5]): 50
- Velvetleaf plant response rating (velvetleaf; [6]): 70
- Plant response rating, Velvetleaf (velvetleaf; [7]): 80
- Plant response rating, Velvetleaf (velvetleaf; [8]): 70
